From patent publication US20240116946A1 (Gilead Sciences, Inc., priority 2022, published 2024)
Where two headings read alike, the source gives them in different places.

Key:
[1] = test system: SARS-CoV-2-NLuc; assay: microbe, parasite or virus in culture; assay type: cell-based, SARS Coronavirus 2
[2] = molecular target: recombinant SARS-CoV-2 Main protease (Mpro) (Severe acute respiratory syndrome coronavirus 2 (2019-nCoV) (SARS-CoV-2), UniProt P0DTD1); assay: Cov Mpro Biochemical IC50 Assay; conditions: read-out: MPro IC50
[3] = Severe acute respiratory syndrome coronavirus, 48 h, read-out: MPro EC50
[4] = recombinant SARS-CoV-2 Mpro 7.5 nM, fluorogenic peptide substrate 40 μM
[5] = recombinant SARS-CoV-2 Mpro, fluorogenic peptide substrate
[6] = Severe acute respiratory syndrome coronavirus, 48 h; read-out: MPro EC50

Compound | EC50 [1, 3] | IC50 [2, 4] | IC50 [2, 5] | EC50 [1, 6] | EC50 ([1]; read-out: MPro EC50)
COc1cc(-c2cc3c(s2)c(=O)n(-c2cncc(C)n2)c(=O)n3CCC#N)c(Cl)cc1F [Example 894] | 6.55 nM | 3.2 nM |  |  | 
COCCNc1ccc2cncc(-n3c(=O)[nH]c4cc(-c5ccccc5Cl)sc4c3=O)c2c1 [Example 403] | 11.1 nM | 6.9 nM |  |  | 
Cc1n[nH]cc1-c1cccc(Cl)c1-c1ccc2c(=O)n(-c3cncc4ccccc34)c(=O)[nH]c2c1 [Example 261] | 98.6 nM |  | 79 nM |  | 
Cc1c(C#N)cncc1-c1cccc(Cl)c1-c1ccc2c(=O)n(-c3cncc4ccccc34)c(=O)[nH]c2c1 [Example 205] | 41.2 nM |  | 44 nM |  | 
COc1cc(-c2cc3c(s2)c(=O)n(-c2cncc4cnn(C)c24)c(=O)n3CCN(C)C)c(Cl)cc1F [Example 1068] | 219 nM | 74.2 nM |  |  | 
CC(C)Oc1cncc(-n2c(=O)[nH]c3cc(-c4ccccc4Cl)sc3c2=O)c1 [Example 382] | 208 nM |  | 4600 nM |  | 
CC(=O)N1CC2(C1)CN(c1ccc3cncc(-n4c(=O)[nH]c5cc(-c6ccccc6Cl)sc5c4=O)c3c1)C2 [Example 422] |  | 7.75 nM |  | 134 nM | 
CNC(=O)c1cccc(-c2cccc(Cl)c2-c2ccc3c(=O)n(-c4cncc5ccccc45)c(=O)[nH]c3c2)c1 [Example 189] | 18.2 nM |  | 8.58 nM |  | 
CS(=O)(=O)c1cccc(-c2cccc(Cl)c2-c2ccc3c(=O)n(-c4cncc5ccccc45)c(=O)[nH]c3c2)c1 [Example 269] | < 5.29 nM |  | 10.7 nM |  | 
COc1cc(-c2cc3c(s2)c(=O)n(-c2cncc(Cl)c2C)c(=O)n3CCC#N)c(Cl)cc1F (single isomer, unassigned) [Example 1032, 3-[6-(2-chloro-4-fluoro-5-methoxy-phenyl)-3-(5-chloro-4-methyl-3-pyridyl)-2,4-dioxo-thieno[3,2-d]pyrimidin-1-yl]propanenitrile] |  | 1.99 nM |  |  | 2.02 nM
O=c1[nH]c2cc(-c3ccccc3Cl)sc2c(=O)n1-c1cncc2ccc(N3CC4(COC4)C3)cc12 [Example 397] | 15.2 nM | 3.51 nM |  |  | 
Cn1cc(-c2cccc(Cl)c2-c2cc3[nH]c(=O)n(-c4cncc5ccccc45)c(=O)c3s2)c(C(F)(F)F)n1 [Example 280, 6-(2-chloro-6-(1-methyl-3-(trifluoromethyl)-1H-pyrazol-4-yl)phenyl)-3-(isoquinolin-4-yl)thieno[3,2-d]pyrimidine-2,4(1H,3H)-dione] | 15.9 nM |  | 5.97 nM |  | 
O=c1[nH]c2cc(-c3ccccc3OCc3ccccc3Cl)ccc2c(=O)n1-c1cncc2ccccc12 [Example 55] | 1830 nM |  | 12800 nM |  | 
CN1C(=O)CC(C)(C)c2cc(-c3cccc(Cl)c3-c3ccc4c(=O)n(-c5cncc6ccccc56)c(=O)[nH]c4c3)ccc21 [Example 315] | 40.2 nM |  | 42 nM |  | 
N#CCn1c(=O)n(-c2cncc3ccccc23)c(=O)c2sc(-c3c(Cl)cccc3-c3cncc(C#N)c3)cc21 [Example 681] | 11.1 nM | 4.49 nM |  |  | 
COc1cccc(C#N)c1-c1cc2c(s1)c(=O)n(-c1cncc3ccccc13)c(=O)n2CCC#N [Example 820] | 32.9 nM | 5.73 nM |  |  | 
Cn1ccc2cccc(-c3ccc4c(=O)n(-c5cncc6ccccc56)c(=O)[nH]c4c3)c21 [Example 41] |  |  | 1480 nM | 3840 nM | 
Cc1nnc(-c2cccc(-c3ccc4c(=O)n(-c5cncc6ccccc56)c(=O)[nH]c4c3)c2)o1 [Example 39] |  |  | 7750 nM | 23400 nM | 
CC(C)c1cncc(-n2c(=O)[nH]c3cc(-c4ccccc4Cl)sc3c2=O)c1 [Example 376] | 47300 nM |  | 43300 nM |  | 
COc1cc(-c2cc3c(s2)c(=O)n(-c2cncc4ccccc24)c(=O)n3CC2(C#N)CCC2)c(Cl)cc1F [Example 690] | 98.8 nM | 47 nM |  |  | 
COc1cc(Cl)c(-c2cc3[nH]c(=O)n(-c4cncc5ccccc45)c(=O)c3s2)cc1OC [Example 343] | 7.79 nM |  | 4.02 nM |  | 
COc1cc(-c2cc3[nH]c(=O)n(-c4cncc5c4CCCC5)c(=O)c3s2)c(Cl)cc1F [Example 729] |  | 6.1 nM |  | 7.78 nM | 
O=c1[nH]c2cc(-c3cc(Cl)cc(Cl)c3)ccc2c(=O)n1-c1cncc2ccccc12 [Example 53] | 4330 nM |  | 33200 nM |  | 

Compound | EC50 [1, 3] | IC50 [2, 4] | IC50 [2, 5] | EC50 [1, 6] | EC50 ([1]; read-out: MPro EC50)
COc1cc(-c2cc3c(s2)c(=O)n(-c2cc(C)cnn2)c(=O)n3CCC#N)c(C#N)cc1F [Example 812] |  | 8.87 nM |  | 89 nM | 
Cc1c(Cl)cncc1-n1c(=O)[nH]c2cc(-c3ccccc3Cl)ccc2c1=O [Example 140, 3-(5-chloro-4-methylpyridin-3-yl)-7-(2-chlorophenyl)quinazoline-2,4(1H,3H)-dione] | 429 nM |  | > 100000 nM |  | 
CCn1c(C)nc2cncc(-n3c(=O)c4sc(-c5cc(OC)c(F)cc5Cl)cc4n(CCC#N)c3=O)c21 [Example 940] | 23.6 nM | 5.28 nM |  |  | 
Cc1cc(C)c(-c2cc3[nH]c(=O)n(-c4cncc5ccccc45)c(=O)c3s2)cc1C#N [Example 648] | 188 nM | 99.5 nM |  |  | 
O=c1[nH]c2cc(-c3cc(F)c(F)cc3Cl)sc2c(=O)n1-c1cncc2ccccc12 [Example 286] | 60.3 nM |  | 34.8 nM |  | 
Cn1nnc2cncc(-n3c(=O)c4sc(-c5ccc(F)cc5Cl)cc4n(CCC#N)c3=O)c21 (single isomer, unassigned) [Example 1029, 3-[6-(2-chloro-4-fluoro-phenyl)-3-(1-methyltriazolo[4,5-c]pyridin-7-yl)-2,4-dioxo-thieno[3,2-d]pyrimidin-1-yl]propanenitrile] |  | 582 nM |  |  | > 1000 nM
COc1cc(-c2cc3c(s2)c(=O)n(-c2cncc4cnn(C)c24)c(=O)n3CCC#N)c(C)cc1Cl [Example 1018] | 19.2 nM | 15 nM |  |  | 
COc1cc(-c2cc3c(s2)c(=O)n(-c2cnccn2)c(=O)n3CCC#N)c(Cl)cc1F [Example 893] | 136 nM | 22.1 nM |  |  | 
Cc1c(Cl)cccc1-c1cc2[nH]c(=O)n(-c3cncc4ccccc34)c(=O)c2s1 [Example 12] | 943 nM |  | 7450 nM |  | 
Cn1ncc2cncc(-n3c(=O)c4sc(-c5cc(C(F)(F)F)ccc5C#N)cc4n(CCC#N)c3=O)c21 [Example 822] |  | 96.4 nM |  | 346 nM | 
COc1cc(-c2cc3c(s2)c(=O)n(-c2cncc4cnn(C)c24)c(=O)n3CC#N)c(Cl)cc1F (single isomer, unassigned) [Example 1013, 2-[6-(2-chloro-4-fluoro-5-methoxy-phenyl)-3-(1-methylpyrazolo[4,3-c]pyridin-7-yl)-2,4-dioxo-thieno[3,2-d]pyrimidin-1-yl]acetonitrile] |  | 1.42 nM |  |  | 16.5 nM
COc1cc(Cl)c(-c2cc3c(s2)c(=O)n(-c2cncc4cnn(C)c24)c(=O)n3CCC#N)cc1F [Example 792] | 12.3 nM | 8.29 nM |  |  | 
O=c1[nH]c2cc(-c3c(Cl)cccc3-c3ccnnc3)sc2c(=O)n1-c1cncc(C2CC2)c1 [Example 616] | 320 nM | 6.92 nM |  |  | 
COc1cc(-c2cc3c(s2)c(=O)n(-c2cncc4ccccc24)c(=O)n3CCC#N)c(Cl)cc1F [Example 632, 3-(6-(2-chloro-4-fluoro-5-methoxyphenyl)-3-(isoquinolin-4-yl)-2,4-dioxo-3,4-dihydrothieno[3,2-d]pyrimidin-1(2H)-yl)propanenitrile] |  | 6.13 nM |  | 3.11 nM | 
COc1ccc(Cl)c(-c2cc3[nH]c(=O)n(-c4cncc5ccc(OC)cc45)c(=O)c3s2)c1 [Example 625] | 18.1 nM | 6.91 nM |  |  | 
COc1cc(-c2cc3[nH]c(=O)n(-c4cncc5ccccc45)c(=O)c3s2)c(C)cn1 [Example 719] | 938 nM | 364 nM |  |  | 
COc1ccc(C#N)c(-c2cc3[nH]c(=O)n(-c4cncc5c(Cl)cccc45)c(=O)c3s2)c1 [Example 594] | 929 nM | 883 nM |  |  | 
Cc1cnnc(-n2c(=O)c3sc(-c4ccccc4C#N)cc3n(CCC#N)c2=O)c1 [Example 813] |  | 32.5 nM |  | 362 nM | 
COc1cc(-c2cc3c(s2)c(=O)n(-c2cncnc2)c(=O)n3CCC#N)c(Cl)cc1F [Example 983] | 23.1 nM | 6.05 nM |  |  | 
COc1cc(-c2cc3c(s2)c(=O)n(-c2cncc4cnn(CC(F)F)c24)c(=O)n3CCC#N)c(Cl)cc1F [Example 911] | 11.8 nM | 13.2 nM |  |  | 
COc1ccc(Cl)c(-c2cc3[nH]c(=O)n(-c4cncc5ccc(N6C(=O)COC[C@@H]6C)cc45)c(=O)c3s2)c1 [Example 574] |  | 6.37 nM |  |  | 18.5 nM
COc1cc(-c2cc3c(s2)c(=O)n(-c2cncc4cnn(C)c24)c(=O)n3CC2(CC#N)CC2)c(Cl)cc1F [Example 659] |  | 40.9 nM |  |  | 
